Test results taken from patent US12714686B2, “N-propargylglycine: a unique inhibitor of proline dehydrogenase with brain-enhancing mitohormesis properties capable of mitigating the pathogenesis of neurodegenerative disorders” (Buck Institute for Research on Aging, priority 2020, dated 2026).
“Also recorded” adds a separate entry of the source.

What was measured:
[1] = test system: PRODH expressing mammalian cell systems; experiment: UPRmt activation and mitohormesis induction in PRODH expressing mammalian cell systems; format: cell-based; settings: all PRODH expressing mammalian cell systems studied to date
[2] = biological target: T1, proline dehydrogenase (PRODH) (Homo sapiens, UniProt O43272); experiment: PRODH enzyme inhibition; format: biochemical
T1 sequence (O43272 1-600): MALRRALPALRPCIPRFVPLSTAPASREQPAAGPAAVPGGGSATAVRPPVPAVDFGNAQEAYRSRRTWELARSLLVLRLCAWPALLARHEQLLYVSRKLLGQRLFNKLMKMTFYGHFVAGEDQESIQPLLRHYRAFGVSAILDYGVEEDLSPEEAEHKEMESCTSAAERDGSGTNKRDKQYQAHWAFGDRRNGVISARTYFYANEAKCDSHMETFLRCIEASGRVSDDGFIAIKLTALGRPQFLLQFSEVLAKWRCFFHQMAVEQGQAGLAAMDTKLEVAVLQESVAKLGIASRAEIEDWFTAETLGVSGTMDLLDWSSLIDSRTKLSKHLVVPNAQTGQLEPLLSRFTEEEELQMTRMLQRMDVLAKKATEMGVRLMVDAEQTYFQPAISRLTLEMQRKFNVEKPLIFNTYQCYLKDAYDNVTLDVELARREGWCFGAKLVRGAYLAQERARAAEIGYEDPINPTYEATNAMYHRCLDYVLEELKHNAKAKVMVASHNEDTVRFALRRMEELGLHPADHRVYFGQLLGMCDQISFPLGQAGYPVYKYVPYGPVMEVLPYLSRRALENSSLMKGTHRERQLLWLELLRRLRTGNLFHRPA

[3] = Brain penetration of orally administered N-PPG; format: in vivo; settings: oral, repeated administration; inferred from brain UPRmt induction
[4] = Tolerability of oral N-PPG in Study A and B mice (body weight, vitality, side effects); format: in vivo, mouse
Description: (§1) For Study A, beginning at 5 weeks of age, seven male and female mice (WT) were daily administered oral N-PPG over a graduated dose range of 50 mg/kg to 200 mg/kg for 9 days, while 4 other age- and sex-matched control mice (W) were given only daily saline.
(§2) For Study B, beginning at 5-weeks of age, four male and female Htt-mut mice (HT) were administered oral N-PPG at 50 mg/kg daily for 9 days, while four other age- and sex-matched Htt-mut mice (H) were given only daily saline. All Study A and B mice were sacrificed within 4 h of receiving their last treatment (week 7). […] Excised brains were snap frozen in liquid nitrogen for latter cryopulverization, extraction and analysis of total brain RNA and protein.

YME1L1 [5] = experiment: Study A: brain UPRmt protease YME1L1 mRNA and protein expression; format: in vivo, mouse
Description: as §1, §2

YME1L1 [6] = experiment: Study B: brain YME1L1 in Htt-mut and wildtype mice; format: in vivo, mouse; settings: 50 mg/kg/day oral N-PPG, 9 days
Description: as §2

HSP-60 = experiment: Study A: brain chaperone HSP-60 transcripts by RT-PCR; format: in vivo; settings: single mouse brain, 200 mg/kg oral N-PPG, 9 days
Description: as §1, §2

PRODH [7] = biological target: T2, PRODH (Mus musculus, UniProt Q9WU79); experiment: Study A: oral N-PPG in wildtype mice, whole brain PRODH protein (western blot) and mRNA; format: in vivo; settings: whole brain lysates
T2 construct: Western blots of whole brain lysates from wildtype B6/CBA mice; from tissue; R6/2 Htt-mut in B6/CBA background
T2 sequence (Q9WU79 1-599): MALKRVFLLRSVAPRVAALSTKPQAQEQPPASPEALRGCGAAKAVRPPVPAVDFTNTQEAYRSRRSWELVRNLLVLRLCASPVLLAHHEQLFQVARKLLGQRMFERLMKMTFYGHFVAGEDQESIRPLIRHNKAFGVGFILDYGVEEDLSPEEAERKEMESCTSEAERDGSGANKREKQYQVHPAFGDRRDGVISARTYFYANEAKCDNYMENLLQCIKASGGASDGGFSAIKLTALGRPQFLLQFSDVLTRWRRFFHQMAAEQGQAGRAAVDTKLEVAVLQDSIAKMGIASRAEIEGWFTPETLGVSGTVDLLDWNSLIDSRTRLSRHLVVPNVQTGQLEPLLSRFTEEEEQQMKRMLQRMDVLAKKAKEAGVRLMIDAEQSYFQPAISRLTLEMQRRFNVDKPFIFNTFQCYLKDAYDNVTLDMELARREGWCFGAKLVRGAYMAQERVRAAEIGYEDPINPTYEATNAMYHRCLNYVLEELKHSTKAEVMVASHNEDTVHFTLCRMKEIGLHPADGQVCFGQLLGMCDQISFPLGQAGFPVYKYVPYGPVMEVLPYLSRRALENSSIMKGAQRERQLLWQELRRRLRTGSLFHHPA
Description: as §1, §2

[8] = test system: Htt-mut mouse brain transcriptome; experiment: Study B: whole brain RNA transcriptome (RNAseq) of Htt-mut mice; format: in vivo
Description: as §2

[9] = test system: mouse brain transcriptome; experiment: Study A: whole brain transcriptome (RNAseq) and pathway analysis; format: in vivo
Description: as §1, §2

PRODH [10] = biological target: T2, PRODH; experiment: Study B: oral N-PPG in Htt-mut (R6/2) mice, whole brain PRODH protein; format: in vivo; settings: HT mice, 50 mg/kg/day orally x 9 days vs saline, compared with wildtype
Description: as §2

[11] = over-representation analysis, FDR p<0.05

O=C1CCC(C(=O)O)O1 (centres unmarked) [5-oxo]
activation of UPRmt and induction of mitohormesis [1]: do not activate the UPRmt or induce mitohormesis | PRODH enzyme inhibiting potency relative to N-PPG [2]: comparable

C#CCNCC(=O)O [N-PPG, N-propargylglycine]
activation of UPRmt and induction of mitohormesis [1]: activate the mitochondrial unfolded protein response (UPRmt) and induce mitohormesis | crossing of the blood-brain-barrier [3]: capable of crossing the mammalian blood-brain-barrier | health of mice at sacrifice (repeated body weight and vitality measurements) ([4]; all Study A and B mice, week 7): healthy and asymptomatic | systemic or neurologic side effects ([4]; mice, daily oral 50 to 200 mg/kg N-PPG, 9 days): without any systemic or neurologic side effects; also recorded: without causing any adverse systemic or neurologic consequences | mitochondrial YME1L1 mRNA and protein expression (YME1L1 [5]; WT mice, 50 mg/kg dose, brain): increased | induction of mitochondrial protease YME1L1 transcripts relative to housekeeping transcripts (YME1L1 [5]; single mouse brain, 200 mg/kg oral N-PPG, 9 days, RT-PCR): 1.4 fold | increase in mean YME1L1 expression (signals normalized to β-actin or Rieske) (YME1L1 [5]; wildtype mice, 50 mg/kg oral N-PPG vs saline, whole brain lysates, western blot): ~ 40% | brain YME1L1 in Htt-mut and wildtype mice (YME1L1 [6]): YME1L1 upregulation | induction of chaperone HSP-60 transcripts relative to housekeeping transcripts (HSP-60): 1.7 fold | reduction in mean PRODH expression (PRODH signals normalized to β-actin or Rieske) (PRODH [7]; wildtype B6/CBA mice, oral 50 mg/kg N-PPG for nine days vs saline): at least 30% | normalized mean PRODH expression levels (PRODH [7]; wildtype mice, oral saline, 50, 100, 150 or 200 mg/kg N-PPG): dose-dependent decline | normalization of deranged whole brain transcriptome of Htt-mut mice ([8]; HT mice, 50 mg/kg/day orally x 9 days vs untreated H, includes TH, DRD1, ADORA2A, 50 mg/kg/day): partial-to complete normalization; also recorded: normalizes HT transcriptomes away from Htt-mut (H) and more toward wildtype (W) | differentially expressed genes between WT, HT, W and H brains ([8]; Study B, RNAseq, FDR p<0.05): 622 genes | Htt-mut treated mice with full transcriptome normalization ([8]; four HT mice, 50 mg/kg/day orally x 9 days): one of the four | whole brain transcriptome pathway analysis ([9]; WT vs W mice, RNAseq, FDR p<0.05): upregulation of pathways (GO, Reactome) specifically regulating neuronal cell functions | genes differentially expressed (p<0.05) between N-PPG treated and saline treated brains ([9]; five WT (50 mg/kg, one 100 mg/kg, oral 9 days) vs four W brains, RNAseq): 1324 genes | upregulated genes among the differentially expressed genes ([9]; five WT vs four W brains, RNAseq): 841 genes | Reactome neural pathways encoded by upregulated genes [9, 11]: 7 | enriched Gene Ontology (GO) pathways encoded by upregulated genes [9, 11]: 77 | brain PRODH protein decay in Htt-mut mice (PRODH [10]): partial mitochondrial PRODH protein degradation

O=C(O)C1NCCS1 (centres unmarked) [T2C]
activation of UPRmt and induction of mitohormesis [1]: do not activate the UPRmt or induce mitohormesis | PRODH enzyme inhibiting potency relative to N-PPG [2]: comparable

O=C(O)C1CCCO1 (centres unmarked) [THFA]
activation of UPRmt and induction of mitohormesis [1]: do not activate the UPRmt or induce mitohormesis | PRODH enzyme inhibiting potency relative to N-PPG [2]: comparable
